From PubChem BioAssay (NCI)
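Results reflect a 48-hour exposure of cells in 96-well plates to compound at five concentrations. TGI is the concentration that stops growth completely.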

Key:
Test in all cases: DTP human tumour cell line panel, 48 h
[1] = system: 786-0 renal
[2] = system: A498 renal
[3] = system: A549 NSCLC
[4] = system: ACHN renal
[5] = system: BT-549 breast
[6] = system: CAKI-1 renal
[7] = system: CCRF-CEM leukemia
[8] = system: COLO 205 colon
[9] = system: DU-145 prostate
[10] = system: EKVX NSCLC
[11] = system: HCC-2998 colon
[12] = system: HCT-116 colon
[13] = system: HCT-15 colon
[14] = system: HL-60(TB) leukemia
[15] = system: HOP-62 NSCLC
[16] = system: HOP-92 NSCLC
[17] = system: HS 578T breast
[18] = system: HT29 colon
[19] = system: IGROV1 ovarian
[20] = system: K-562 leukemia
[21] = system: KM12 colon
[22] = system: LOX IMVI melanoma
[23] = system: M14 melanoma
[24] = system: MALME-3M melanoma
[25] = system: MCF7 breast
[26] = system: MDA-MB-231 breast
[27] = system: MDA-MB-435
[28] = system: MDA-N
[29] = system: MOLT-4 leukemia
[30] = system: NCI-H226 lung
[31] = system: NCI-H460 lung
[32] = system: NCI-H522 lung
[33] = system: NCI/ADR-RES ovarian
[34] = system: OVCAR-3 ovarian
[35] = system: OVCAR-4 ovarian
[36] = system: OVCAR-5 ovarian
[37] = system: OVCAR-8 ovarian
[38] = system: PC-3 prostate
[39] = system: RPMI-8226 leukemia
[40] = system: RXF 393 renal
[41] = system: SF-268 CNS
[42] = system: SF-539 CNS
[43] = system: SK-MEL-2 melanoma
[44] = system: SK-MEL-28 melanoma
[45] = system: SK-MEL-5 melanoma
[46] = system: SK-OV-3 ovarian
[47] = system: SN12C renal
[48] = system: SNB-19 CNS
[49] = system: SNB-75 CNS
[50] = system: SR leukemia
[51] = system: SW-620 colon
[52] = system: T-47D breast
[53] = system: TK-10 renal
[54] = system: U251 CNS
[55] = system: UACC-257 melanoma
[56] = system: UACC-62 melanoma
[57] = system: UO-31 renal
[58] = system: NCI-H23 lung
[59] = system: SF-295 CNS

Cc1ccc2nnc(NS(=O)(=O)c3cc(C)c(Cl)cc3S)n2n1
TGI [1]: > 100 µM | TGI [2]: > 100 µM | TGI [3]: > 100 µM | TGI [4]: > 100 µM | TGI [5]: > 100 µM | TGI [6]: > 100 µM | TGI [7]: > 100 µM | TGI [8]: > 100 µM | TGI [9]: > 100 µM | TGI [10]: > 100 µM | TGI [11]: > 100 µM | TGI [12]: > 100 µM | TGI [13]: > 100 µM | TGI [14]: > 100 µM | TGI [15]: > 100 µM | TGI [16]: > 100 µM | TGI [17]: > 100 µM | TGI [18]: > 100 µM | TGI [19]: > 100 µM | TGI [20]: > 100 µM | TGI [21]: > 100 µM | TGI [22]: > 100 µM | TGI [23]: > 100 µM | TGI [24]: > 100 µM | TGI [25]: > 100 µM | TGI [26]: > 100 µM | TGI [27]: > 100 µM | TGI [28]: > 100 µM | TGI [29]: > 100 µM | TGI [30]: > 100 µM | TGI [31]: > 100 µM | TGI [32]: > 100 µM | TGI [33]: > 100 µM | TGI [34]: > 100 µM | TGI [35]: > 100 µM | TGI [36]: > 100 µM | TGI [37]: > 100 µM | TGI [38]: > 100 µM | TGI [39]: > 100 µM | TGI [40]: > 100 µM | TGI [41]: > 100 µM | TGI [42]: > 100 µM | TGI [43]: > 100 µM | TGI [44]: > 100 µM | TGI [45]: > 100 µM | TGI [46]: > 100 µM | TGI [47]: > 100 µM | TGI [48]: > 100 µM | TGI [49]: > 100 µM | TGI [50]: > 100 µM | TGI [51]: > 100 µM | TGI [52]: > 100 µM | TGI [53]: > 100 µM | TGI [54]: > 100 µM | TGI [55]: > 100 µM | TGI [56]: > 100 µM | TGI [57]: > 100 µM

N#Cc1c(Nc2ccccc2)[n+]([O-])c2ccc(Cl)cc2[n+]1[O-]
TGI [1]: 34 µM | TGI [2]: > 61.3 µM | TGI [3]: > 60.8 µM | TGI [4]: 68.5 µM | TGI [5]: 14.9 µM | TGI [6]: > 100 µM | TGI [7]: > 27.2 µM | TGI [8]: 8.03 µM | TGI [9]: > 96.4 µM | TGI [10]: > 32.9 µM | TGI [11]: 15.2 µM | TGI [12]: 33.1 µM | TGI [13]: 6.53 µM | TGI [14]: 12.1 µM | TGI [15]: > 69.9 µM | TGI [16]: 4.22 µM | TGI [17]: > 72.8 µM | TGI [18]: 8.22 µM | TGI [19]: 5.96 µM | TGI [20]: > 22.6 µM | TGI [21]: > 100 µM | TGI [22]: 12.7 µM | TGI [23]: 34.1 µM | TGI [24]: 26.9 µM | TGI [25]: > 35.2 µM | TGI [26]: > 67 µM | TGI [27]: > 100 µM | TGI [28]: > 100 µM | TGI [29]: > 100 µM | TGI [30]: > 45.2 µM | TGI [58]: 17.4 µM | TGI [32]: 6.49 µM | TGI [33]: 8.15 µM | TGI [34]: 9.76 µM | TGI [35]: 4.17 µM | TGI [36]: > 100 µM | TGI [37]: 10.7 µM | TGI [38]: > 100 µM | TGI [39]: > 24.7 µM | TGI [40]: > 100 µM | TGI [41]: > 48.6 µM | TGI [59]: > 74.3 µM | TGI [42]: 21.4 µM | TGI [43]: > 72 µM | TGI [44]: > 100 µM | TGI [45]: 4.84 µM | TGI [46]: > 100 µM | TGI [47]: > 100 µM | TGI [48]: > 77.4 µM | TGI [49]: > 96.6 µM | TGI [50]: > 27.7 µM | TGI [51]: > 100 µM | TGI [52]: > 100 µM | TGI [53]: 49.2 µM | TGI [54]: 15.6 µM | TGI [55]: > 25.3 µM | TGI [56]: 31.5 µM | TGI [57]: > 29.4 µM

O=C(N1CCN(c2ccccc2)CC1)N(C(=O)C1(c2ccc(Cl)cc2)CCCC1)S(=O)(=O)c1ccccc1
TGI [1]: > 100 µM | TGI [2]: 0.429 µM | TGI [3]: > 100 µM | TGI [4]: 45.6 µM | TGI [5]: 80.2 µM | TGI [6]: 71.4 µM | TGI [7]: > 100 µM | TGI [8]: 60.3 µM | TGI [9]: > 100 µM | TGI [10]: 58.2 µM | TGI [11]: 58.5 µM | TGI [12]: 52.7 µM | TGI [13]: 80.1 µM | TGI [14]: 68.1 µM | TGI [15]: 88.6 µM | TGI [16]: 74.4 µM | TGI [17]: 88.2 µM | TGI [18]: 75.8 µM | TGI [20]: > 100 µM | TGI [21]: > 100 µM | TGI [22]: 37.9 µM | TGI [23]: 47.3 µM | TGI [24]: 72.3 µM | TGI [25]: 74.9 µM | TGI [26]: 74.5 µM | TGI [27]: > 100 µM | TGI [28]: 51.2 µM | TGI [29]: 59.1 µM | TGI [30]: 99.3 µM | TGI [58]: 69.1 µM | TGI [31]: > 100 µM | TGI [32]: 36.6 µM | TGI [33]: 70.8 µM | TGI [34]: 82.6 µM | TGI [35]: 64.2 µM | TGI [36]: 65.7 µM | TGI [37]: 89.4 µM | TGI [38]: 76.1 µM | TGI [39]: > 100 µM | TGI [40]: > 100 µM | TGI [41]: > 100 µM | TGI [59]: 70.6 µM | TGI [42]: 49.7 µM | TGI [43]: 38.9 µM | TGI [44]: > 100 µM | TGI [45]: 40.7 µM | TGI [46]: 82.9 µM | TGI [47]: 94.6 µM | TGI [48]: 72.2 µM | TGI [49]: > 100 µM | TGI [50]: > 100 µM | TGI [51]: > 100 µM | TGI [52]: > 100 µM | TGI [53]: > 100 µM | TGI [54]: 62.4 µM | TGI [55]: 88.1 µM | TGI [56]: 51.7 µM | TGI [57]: 92.9 µM

COC(=O)c1c(OC(C)=O)ccc2c1c1cc3ccccc3c(OC(C)=O)c1n2C
TGI [1]: 43.2 µM | TGI [2]: 46 µM | TGI [3]: > 100 µM | TGI [4]: 89.4 µM | TGI [5]: 81.1 µM | TGI [6]: 70.3 µM | TGI [7]: > 100 µM | TGI [8]: 69.8 µM | TGI [9]: 44.6 µM | TGI [10]: > 100 µM | TGI [11]: 91.7 µM | TGI [12]: 74 µM | TGI [13]: > 100 µM | TGI [14]: > 100 µM | TGI [15]: > 100 µM | TGI [16]: 37 µM | TGI [17]: 36.7 µM | TGI [18]: 69.1 µM | TGI [19]: 12.8 µM | TGI [20]: > 100 µM | TGI [21]: > 100 µM | TGI [23]: > 100 µM | TGI [24]: 56.2 µM | TGI [25]: > 100 µM | TGI [26]: > 100 µM | TGI [27]: > 100 µM | TGI [28]: > 100 µM | TGI [29]: > 100 µM | TGI [30]: > 100 µM | TGI [58]: > 100 µM | TGI [31]: > 100 µM | TGI [32]: 42.9 µM | TGI [33]: > 100 µM | TGI [34]: 62 µM | TGI [35]: > 100 µM | TGI [36]: > 100 µM | TGI [37]: > 100 µM | TGI [38]: > 100 µM | TGI [39]: > 100 µM | TGI [40]: > 100 µM | TGI [41]: > 100 µM | TGI [59]: > 100 µM | TGI [42]: 91.1 µM | TGI [43]: > 100 µM | TGI [44]: > 100 µM | TGI [45]: 31.2 µM | TGI [46]: 55.2 µM | TGI [47]: > 100 µM | TGI [48]: > 100 µM | TGI [49]: 36 µM | TGI [50]: > 100 µM | TGI [52]: 39.8 µM | TGI [53]: 92.5 µM | TGI [54]: > 100 µM | TGI [56]: > 100 µM | TGI [57]: > 100 µM
